This passage reports IC50 results from patent US12427157B2, “Methods for treatment of diseases involving acidic or hypoxic diseased tissues” (Cybrexa 1, Inc., priority 2018, dated 2025).

The experiment has as its target PARP (Homo sapiens, UniProt P09874). In words: Enzymatic Assay 2: HT Universal Chemiluminescent PARP Assay of cleaved compounds.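 Also: PARP reaction with activated DNA run 1 h at room temperature, product detected via streptavidin-HRP and luminescence endpoint reading on a plate reader.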 Particulars: read-out: IC50 Enzymatic Assay 2; Examples cleaved per Example A (crude cleavage solution); R^8H starting materials as such.

Residues, ends and D or L forms follow the SMILES beside them. *: point of attachment. X19 = CN(Cc1ccc(-c2[nH]c3cc(F)cc4c3c2CCNC4=O)cc1)C(=O)OCCS*; X2 = NC(=O)c1cccc2[nH]c(-c3ccc(COC(=O)OCCS*)cc3)nc12

Sequence of PARP (P09874 whole entry): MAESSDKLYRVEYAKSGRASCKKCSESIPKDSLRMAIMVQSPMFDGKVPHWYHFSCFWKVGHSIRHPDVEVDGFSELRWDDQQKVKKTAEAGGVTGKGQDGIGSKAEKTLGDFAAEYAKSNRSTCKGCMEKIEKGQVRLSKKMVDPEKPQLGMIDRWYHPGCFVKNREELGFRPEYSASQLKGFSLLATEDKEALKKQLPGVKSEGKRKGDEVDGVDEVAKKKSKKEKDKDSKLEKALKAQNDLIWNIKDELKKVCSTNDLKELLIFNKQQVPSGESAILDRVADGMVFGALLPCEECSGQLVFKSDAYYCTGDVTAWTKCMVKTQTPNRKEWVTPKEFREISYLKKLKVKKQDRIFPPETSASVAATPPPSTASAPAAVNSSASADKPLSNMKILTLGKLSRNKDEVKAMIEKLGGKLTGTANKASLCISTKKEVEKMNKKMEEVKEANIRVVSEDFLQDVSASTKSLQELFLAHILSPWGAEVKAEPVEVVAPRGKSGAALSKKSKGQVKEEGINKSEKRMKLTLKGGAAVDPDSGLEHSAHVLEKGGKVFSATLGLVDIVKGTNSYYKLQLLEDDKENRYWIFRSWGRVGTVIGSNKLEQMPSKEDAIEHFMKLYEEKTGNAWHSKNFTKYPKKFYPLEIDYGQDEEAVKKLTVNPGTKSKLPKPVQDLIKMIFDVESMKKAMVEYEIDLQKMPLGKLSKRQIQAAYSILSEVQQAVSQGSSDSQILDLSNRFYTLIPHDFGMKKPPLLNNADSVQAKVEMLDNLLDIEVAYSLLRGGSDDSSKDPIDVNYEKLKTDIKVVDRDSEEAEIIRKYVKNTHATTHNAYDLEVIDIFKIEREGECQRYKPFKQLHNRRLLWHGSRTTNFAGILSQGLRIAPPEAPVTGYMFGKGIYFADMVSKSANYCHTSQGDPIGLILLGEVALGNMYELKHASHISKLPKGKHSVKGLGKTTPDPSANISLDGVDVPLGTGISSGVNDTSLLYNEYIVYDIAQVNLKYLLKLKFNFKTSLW

Regarding `CC(C)C[C@H](NC(=O)[C@H](Cc1ccc(O)cc1)NC(=O)[C@H](C)NC(=O)[C@H](CCCNC(=N)N)NC(=O)[C@H](Cc1c[nH]c2ccccc12)NC(=O)[C@@H]1CCCN1C(=O)[C@H](CC(N)=O)NC(=O)[C@H](CCC(N)=O)NC(=O)[C@H](CC(=O)O)NC(=O)[C@H](CC(=O)O)NC(=O)[C@H](C)N)C(=O)N[C@@H](CC(=O)O)C(=O)N[C@@H](CC(C)C)C(=O)N[C@@H](CC(C)C)C(=O)N[C@@H](Cc1ccccc1)C(=O)N1CCC[C@H]1C(=O)N[C@H](C(=O)N[C@@H](CC(=O)O)C(=O)N[C@H](C(=O)N[C@@H](CC(C)C)C(=O)N[C@@H](CC(C)C)C(=O)N[C@@H](CC(C)C)C(=O)N[C@@H](CC(=O)O)C(=O)N[C@@H](CC(C)C)C(=O)N[C@@H](CC(C)C)C(=O)N[C@@H](Cc1c[nH]c2ccccc12)C(=O)N[C@@H](CSSCCOC(=O)OCc1ccc(-c2nc3c(C(N)=O)cccc3[nH]2)cc1)C(=O)NCC(=O)O)[C@@H](C)O)[C@@H](C)O` [Example 1], the IC50 was 12.1 nM.

For the compound `CC[C@H](C)[C@H](NC(=O)[C@@H]1CCCN1C(=O)[C@H](CC(N)=O)NC(=O)[C@H](CCC(N)=O)NC(=O)[C@H](CCC(=O)O)NC(=O)[C@H](C)N)C(=O)N[C@@H](Cc1ccc(O)cc1)C(=O)N[C@@H](Cc1c[nH]c2ccccc12)C(=O)N[C@@H](C)C(=O)N[C@@H](CCCNC(=N)N)C(=O)N[C@@H](Cc1ccc(O)cc1)C(=O)N[C@@H](C)C(=O)N[C@@H](CC(=O)O)C(=O)N[C@@H](Cc1c[nH]c2ccccc12)C(=O)N[C@@H](CC(C)C)C(=O)N[C@@H](Cc1ccccc1)C(=O)N[C@H](C(=O)N[C@H](C(=O)N1CCC[C@H]1C(=O)N[C@@H](CC(C)C)C(=O)N[C@@H](CC(C)C)C(=O)N[C@@H](CC(C)C)C(=O)N[C@@H](CC(C)C)C(=O)N[C@@H](CC(=O)O)C(=O)N[C@@H](CC(C)C)C(=O)N[C@@H](C)C(=O)N[C@@H](CC(C)C)C(=O)N[C@@H](CC(C)C)C(=O)N[C@H](C(=O)N[C@@H](CC(=O)O)C(=O)N[C@@H](C)C(=O)N[C@@H](CC(=O)O)C(=O)N[C@@H](CCC(=O)O)C(=O)N[C@@H](CSSCCOC(=O)OCc1ccc(-c2nc3c(C(N)=O)cccc3[nH]2)cc1)C(=O)NCC(=O)O)C(C)C)[C@@H](C)O)[C@@H](C)O` [Example 2] (H-AEQNPIYWARYADWLFTTPLLLLDLALLVDADEC(X2)G-OH; N-terminus and C-terminus assumed), the half-maximal inhibitory concentration (IC50) is 9.52 nM. As for `CC(C)C[C@H](NC(=O)[C@H](Cc1ccc(O)cc1)NC(=O)[C@H](C)NC(=O)[C@H](CCCNC(=N)N)NC(=O)[C@H](Cc1c[nH]c2ccccc12)NC(=O)[C@@H]1CCCN1C(=O)[C@H](CC(N)=O)NC(=O)[C@H](CCC(N)=O)NC(=O)[C@H](CC(=O)O)NC(=O)[C@H](CC(=O)O)NC(=O)[C@H](C)N)C(=O)N[C@@H](CC(=O)O)C(=O)N[C@@H](CC(C)C)C(=O)N[C@@H](CC(C)C)C(=O)N[C@@H](Cc1ccccc1)C(=O)N1CCC[C@H]1C(=O)N[C@H](C(=O)N[C@@H](CC(=O)O)C(=O)N[C@H](C(=O)N[C@@H](CC(C)C)C(=O)N[C@@H](CC(C)C)C(=O)N[C@@H](CC(C)C)C(=O)N[C@@H](CC(=O)O)C(=O)N[C@@H](CC(C)C)C(=O)N[C@@H](CC(C)C)C(=O)N[C@@H](Cc1c[nH]c2ccccc12)C(=O)N[C@@H](CC(=O)O)C(=O)N[C@@H](C)C(=O)N[C@@H](CC(=O)O)C(=O)N[C@@H](CCC(=O)O)C(=O)N[C@@H](CSSCCOC(=O)N1CCC[C@@H](c2ccc(-n3cc4cccc(C(N)=O)c4n3)cc2)C1)C(=O)NCC(=O)O)[C@@H](C)O)[C@@H](C)O` [Example 10], the figure is 64.9 nM; as for `CC(C)C[C@H](NC(=O)[C@H](Cc1ccc(O)cc1)NC(=O)[C@H](C)NC(=O)[C@H](CCCNC(=N)N)NC(=O)[C@H](Cc1c[nH]c2ccccc12)NC(=O)[C@@H]1CCCN1C(=O)[C@H](CC(N)=O)NC(=O)[C@H](CCC(N)=O)NC(=O)[C@H](CC(=O)O)NC(=O)[C@H](CC(=O)O)NC(=O)[C@H](C)N)C(=O)N[C@@H](CC(=O)O)C(=O)N[C@@H](CC(C)C)C(=O)N[C@@H](CC(C)C)C(=O)N[C@@H](Cc1ccccc1)C(=O)N1CCC[C@H]1C(=O)N[C@H](C(=O)N[C@@H](CC(=O)O)C(=O)N[C@H](C(=O)N[C@@H](CC(C)C)C(=O)N[C@@H](CC(C)C)C(=O)N[C@@H](CC(C)C)C(=O)N[C@@H](CC(=O)O)C(=O)N[C@@H](CC(C)C)C(=O)N[C@@H](CC(C)C)C(=O)N[C@@H](Cc1c[nH]c2ccccc12)C(=O)N[C@@H](CC(=O)O)C(=O)N[C@@H](C)C(=O)N[C@@H](CC(=O)O)C(=O)N[C@@H](CCC(=O)O)C(=O)N[C@@H](CSSCCOC(=O)N1CCC[C@]1(C)c1nc2c(C(N)=O)cccc2[nH]1)C(=O)NCC(=O)O)[C@@H](C)O)[C@@H](C)O` [Example 11], 1.08 nM. The same measure for `CC[C@H](C)[C@H](NC(=O)[C@@H]1CCCN1C(=O)[C@H](CC(N)=O)NC(=O)[C@H](CCC(N)=O)NC(=O)[C@H](CCC(=O)O)NC(=O)[C@H](C)N)C(=O)N[C@@H](Cc1ccc(O)cc1)C(=O)N[C@@H](Cc1c[nH]c2ccccc12)C(=O)N[C@@H](C)C(=O)N[C@@H](CCCNC(=N)N)C(=O)N[C@@H](Cc1ccc(O)cc1)C(=O)N[C@@H](C)C(=O)N[C@@H](CC(=O)O)C(=O)N[C@@H](Cc1c[nH]c2ccccc12)C(=O)N[C@@H](CC(C)C)C(=O)N[C@@H](Cc1ccccc1)C(=O)N[C@H](C(=O)N[C@H](C(=O)N1CCC[C@H]1C(=O)N[C@@H](CC(C)C)C(=O)N[C@@H](CC(C)C)C(=O)N[C@@H](CC(C)C)C(=O)N[C@@H](CC(C)C)C(=O)N[C@@H](CC(=O)O)C(=O)N[C@@H](CC(C)C)C(=O)N[C@@H](C)C(=O)N[C@@H](CC(C)C)C(=O)N[C@@H](CC(C)C)C(=O)N[C@H](C(=O)N[C@@H](CC(=O)O)C(=O)N[C@@H](C)C(=O)N[C@@H](CC(=O)O)C(=O)N[C@@H](CCC(=O)O)C(=O)N[C@@H](CSSCCOC(=O)N(C)Cc1ccc(-c2[nH]c3cc(F)cc4c3c2CCNC4=O)cc1)C(=O)NCC(=O)O)C(C)C)[C@@H](C)O)[C@@H](C)O` [Example 15] (H-AEQNPIYWARYADWLFTTPLLLLDLALLVDADEC(X19)G-OH; N-terminus and C-terminus assumed): 6.47 nM; for `CC(C)C[C@H](NC(=O)[C@H](Cc1ccc(O)cc1)NC(=O)[C@H](C)NC(=O)[C@H](CCCNC(=N)N)NC(=O)[C@H](Cc1c[nH]c2ccccc12)NC(=O)[C@@H]1CCCN1C(=O)[C@H](CC(N)=O)NC(=O)[C@H](CCC(N)=O)NC(=O)[C@H](CC(=O)O)NC(=O)[C@H](CC(=O)O)NC(=O)[C@H](C)N)C(=O)N[C@@H](CC(=O)O)C(=O)N[C@@H](CC(C)C)C(=O)N[C@@H](CC(C)C)C(=O)N[C@@H](Cc1ccccc1)C(=O)N1CCC[C@H]1C(=O)N[C@H](C(=O)N[C@@H](CC(=O)O)C(=O)N[C@H](C(=O)N[C@@H](CC(C)C)C(=O)N[C@@H](CC(C)C)C(=O)N[C@@H](CC(C)C)C(=O)N[C@@H](CC(=O)O)C(=O)N[C@@H](CC(C)C)C(=O)N[C@@H](CC(C)C)C(=O)N[C@@H](Cc1c[nH]c2ccccc12)C(=O)N[C@@H](CSS[C@H](C)COC(=O)N(C)Cc1ccc(-c2[nH]c3cc(F)cc4c3c2CCNC4=O)cc1)C(=O)NCC(=O)O)[C@@H](C)O)[C@@H](C)O` [Example 18]: 1.1 nM.
